Reference: US11492385B2, “Long-acting co-agonists of the glucagon and GLP-1 receptors” (Merck Sharp & Dohme Corp., priority 2015, dated 2022)
One block for each compound: values may come before it. Starred links: 1 amine or outer side, 2 acyl side, 3 side chain; linkers in the order of their positions; H or OH if unused. Non-standard residues stand in square brackets, D forms with d. Residues, ends and D or L forms follow the SMILES beside them. Groups on a side chain read outwards from the residue. *: point of attachment. C20 diacid = O=C(O)CCCCCCCCCCCCCCCCCCC(=O)*; Phe(4-CH2NH2) = NCc1ccc(C[C@H](N)C(=O)O)cc1; C18 diacid = O=C(O)CCCCCCCCCCCCCCCCC(=O)*; C16 diacid = O=C(O)CCCCCCCCCCCCCCC(=O)*; γGlu = O=C(O)[C@H](CCC(=O)[*:2])N[*:1]; X1 = O=C([C@H]1CCC[C@@H]1N[*:1])[*:2]; Met(O2) = CS(=O)(=O)CC[C@H](N)C(=O)O; AEEA = NCCOCCOCC(=O)O; Aib = CC(C)(N)C(=O)O

Key:
human GLP1R = target: T1, human GLP1R (Homo sapiens, UniProt P43220); assay: cAMP activity assay, cells expressing human GLP1R; format: cell-based; details: cAMP production, assay buffer with or without 20% human serum (not stated which)
T1 construct: expressed in transfected cells; kept under Blasticidin and Hygromycin selection
In short: (§1)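 cAMP production in human GLP1R- or GCGR-expressing cells was read by luminescence after overnight dark incubation at room temperature. Peptides were given as 10-point DMSO dilution series, with native GLP-1 and glucagon as references. Four-parameter logistic fitting gave EC50.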

human GCGR = target: T2, human GCGR (Homo sapiens, UniProt P47871); assay: cAMP activity assay, cells expressing human GCGR; format: cell-based; details: for EC50: cAMP production, cells expressing human GCGR, assay buffer with or without 20% human serum (not stated which), read-out: GCGR EC50 human; for hGCGR/hGLP1R (hTone): ratio of human GCGR EC50 to human GLP1R EC50
T2 construct: expressed in transfected cells; kept under Blasticidin and Hygromycin selection
In short: as §1

T1 sequence (P43220 24-463): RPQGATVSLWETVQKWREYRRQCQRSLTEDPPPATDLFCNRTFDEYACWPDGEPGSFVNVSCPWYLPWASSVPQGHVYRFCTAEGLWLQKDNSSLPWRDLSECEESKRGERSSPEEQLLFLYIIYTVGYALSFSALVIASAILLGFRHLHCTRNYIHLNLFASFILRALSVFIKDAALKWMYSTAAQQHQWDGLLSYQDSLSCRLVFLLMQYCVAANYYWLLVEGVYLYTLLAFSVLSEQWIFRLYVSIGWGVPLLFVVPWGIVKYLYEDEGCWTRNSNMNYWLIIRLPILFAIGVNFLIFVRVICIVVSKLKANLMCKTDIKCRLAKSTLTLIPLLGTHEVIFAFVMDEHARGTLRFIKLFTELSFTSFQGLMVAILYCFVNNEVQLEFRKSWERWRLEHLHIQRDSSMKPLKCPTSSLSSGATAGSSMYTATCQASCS
T2 sequence (P47871 26-477): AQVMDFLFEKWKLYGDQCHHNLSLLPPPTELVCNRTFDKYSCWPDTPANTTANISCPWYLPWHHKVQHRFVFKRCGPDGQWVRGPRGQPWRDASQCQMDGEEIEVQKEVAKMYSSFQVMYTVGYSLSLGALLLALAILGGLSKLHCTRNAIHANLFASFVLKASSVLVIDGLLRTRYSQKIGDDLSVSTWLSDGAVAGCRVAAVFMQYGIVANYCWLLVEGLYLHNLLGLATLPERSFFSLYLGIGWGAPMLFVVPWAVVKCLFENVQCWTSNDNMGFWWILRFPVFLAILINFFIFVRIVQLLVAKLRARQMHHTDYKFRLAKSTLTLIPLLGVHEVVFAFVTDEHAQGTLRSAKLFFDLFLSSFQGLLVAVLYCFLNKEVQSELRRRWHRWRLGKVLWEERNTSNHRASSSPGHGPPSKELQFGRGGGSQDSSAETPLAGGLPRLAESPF

SMILES: CC(C)C[C@H](NC(=O)[C@H](Cc1ccc(O)cc1)NC(=O)[C@H]1CCC[C@@H]1NC(=O)[C@H](CO)NC(=O)[C@H](Cc1ccc(O)cc1)NC(=O)[C@H](CC(=O)O)NC(=O)[C@H](CO)NC(=O)[C@@H](NC(=O)[C@H](Cc1ccccc1)NC(=O)[C@@H](NC(=O)CNC(=O)[C@H](CCC(N)=O)NC(=O)C(C)(C)NC(=O)[C@@H](N)Cc1c[nH]cn1)[C@@H](C)O)[C@@H](C)O)C(=O)N[C@@H](CC(=O)O)C(=O)NC(C)(C)C(=O)N[C@@H](CCCNC(=N)N)C(=O)N[C@@H](C)C(=O)N[C@@H](C)C(=O)N[C@@H](CCCCNC(=O)COCCOCCNC(=O)COCCOCCNC(=O)CC[C@H](NC(=O)CCCCCCCCCCCCCCCCC(=O)O)C(=O)O)C(=O)N[C@@H](CC(=O)O)C(=O)N[C@@H](Cc1ccccc1)C(=O)N[C@H](C(=O)N[C@H]1CCC[C@@H]1C(=O)N[C@@H](Cc1c[nH]c2ccccc12)C(=O)N[C@@H](CC(C)C)C(=O)N[C@@H](CCS(C)(=O)=O)C(=O)N[C@@H](CC(=O)O)C(=O)N[C@H](C(N)=O)[C@@H](C)O)C(C)C [compound 34] (H-H[Aib]QGTFTSDYS[X1]YLD[Aib]RAAK([AEEA-AEEA-γGlu-C18 diacid])DFV[X1]WL[Met(O2)]DT-NH2; N-terminus assumed)
EC50 (human GLP1R): 1.2 nM | EC50 (human GCGR): 0.64 nM | hGCGR/hGLP1R (hTone) (human GCGR): 0.53

SMILES: CC(C)C[C@H](NC(=O)[C@H](Cc1ccc(O)cc1)NC(=O)[C@H](CCCCN)NC(=O)[C@H](CO)NC(=O)[C@H](Cc1ccc(O)cc1)NC(=O)[C@H](CC(=O)O)NC(=O)[C@H](CO)NC(=O)[C@@H](NC(=O)[C@H](Cc1ccccc1)NC(=O)[C@@H](NC(=O)CNC(=O)[C@H](CCC(N)=O)NC(=O)C(C)(C)NC(=O)[C@@H](N)Cc1c[nH]cn1)[C@@H](C)O)[C@@H](C)O)C(=O)N[C@@H](CC(=O)O)C(=O)N[C@@H](C)C(=O)N[C@@H](CCCNC(=N)N)C(=O)N[C@@H](C)C(=O)N[C@@H](C)C(=O)N[C@@H](CCC(N)=O)C(=O)N[C@@H](Cc1ccc(CNC(=O)COCCOCCNC(=O)COCCOCCNC(=O)CC[C@H](NC(=O)CCCCCCCCCCCCCCCCC(=O)O)C(=O)O)cc1)C(=O)N[C@@H](Cc1ccccc1)C(=O)N[C@H](C(=O)N[C@@H](CCC(N)=O)C(=O)N[C@@H](Cc1c[nH]c2ccccc12)C(=O)N[C@@H](CC(C)C)C(=O)N[C@@H](CC(C)C)C(=O)N[C@@H](CC(=O)O)C(=O)N[C@H](C(N)=O)[C@@H](C)O)C(C)C [compound 32] (H-H[Aib]QGTFTSDYSKYLDARAAQ[Phe(4-CH2NH2)]([AEEA-AEEA-γGlu-C18 diacid])FVQWLLDT-NH2; N-terminus assumed)
EC50 (human GLP1R): 0.028 nM | EC50 (human GCGR): 0.07 nM | hGCGR/hGLP1R (hTone) (human GCGR): 2.52

SMILES: CC(C)C[C@H](NC(=O)[C@H](Cc1ccc(O)cc1)NC(=O)[C@H](CCCCN)NC(=O)[C@H](CO)NC(=O)[C@H](Cc1ccc(O)cc1)NC(=O)[C@H](CC(=O)O)NC(=O)[C@H](CO)NC(=O)[C@@H](NC(=O)[C@H](Cc1ccccc1)NC(=O)[C@@H](NC(=O)CNC(=O)[C@H](CCC(N)=O)NC(=O)C(C)(C)NC(=O)[C@@H](N)Cc1c[nH]cn1)[C@@H](C)O)[C@@H](C)O)C(=O)N[C@@H](CC(=O)O)C(=O)N[C@@H](C)C(=O)N[C@@H](CCCNC(=N)N)C(=O)N[C@@H](C)C(=O)N[C@@H](C)C(=O)N[C@@H](CCCCNC(=O)COCCOCCNC(=O)COCCOCCNC(=O)CC[C@H](NC(=O)CCCCCCCCCCCCCCC(=O)O)C(=O)O)C(=O)N[C@@H](CC(=O)O)C(=O)N[C@@H](Cc1ccccc1)C(=O)N[C@H](C(=O)N[C@@H](CCC(N)=O)C(=O)N[C@@H](Cc1c[nH]c2ccccc12)C(=O)N[C@@H](CC(C)C)C(=O)N[C@@H](CC(C)C)C(=O)N[C@@H](CC(=O)O)C(=O)N[C@H](C(N)=O)[C@@H](C)O)C(C)C [compound 17] (H-H[Aib]QGTFTSDYSKYLDARAAK([AEEA-AEEA-γGlu-C16 diacid])DFVQWLLDT-NH2)
EC50 (human GLP1R): 0.1 nM | EC50 (human GCGR): 0.14 nM | hGCGR/hGLP1R (hTone) (human GCGR): 1.44

Results, then the compound that gave them:

EC50 (human GLP1R): 0.31 nM | EC50 (human GCGR): 0.03 nM | hGCGR/hGLP1R (hTone) (human GCGR): 0.09
SMILES: CC(C)C[C@H](NC(=O)[C@H](Cc1ccc(O)cc1)NC(=O)[C@H](CCCCN)NC(=O)[C@H](CO)NC(=O)[C@H](Cc1ccc(O)cc1)NC(=O)[C@H](CC(=O)O)NC(=O)[C@H](CO)NC(=O)[C@@H](NC(=O)[C@H](Cc1ccccc1)NC(=O)[C@@H](NC(=O)CNC(=O)[C@H](CCC(N)=O)NC(=O)[C@@H](CO)NC(=O)[C@@H](N)Cc1c[nH]cn1)[C@@H](C)O)[C@@H](C)O)C(=O)N[C@@H](CC(=O)O)C(=O)N[C@@H](CCC(=O)O)C(=O)N[C@@H](CCCNC(=N)N)C(=O)N[C@@H](C)C(=O)N[C@@H](C)C(=O)N[C@@H](CCC(N)=O)C(=O)N[C@@H](CCCCNC(=O)COCCOCCNC(=O)COCCOCCNC(=O)CC[C@H](NC(=O)CCCCCCCCCCCCCCC(=O)O)C(=O)O)C(=O)N[C@@H](Cc1ccccc1)C(=O)N[C@H](C(=O)N[C@@H](CCC(N)=O)C(=O)N[C@@H](Cc1c[nH]c2ccccc12)C(=O)N[C@@H](CC(C)C)C(=O)N[C@@H](CCS(C)(=O)=O)C(=O)N[C@@H](CC(=O)O)C(=O)N[C@H](C(N)=O)[C@@H](C)O)C(C)C [compound 16] (H-H[dS]QGTFTSDYSKYLDERAAQK([AEEA-AEEA-γGlu-C16 diacid])FVQWL[Met(O2)]DT-NH2)

EC50 (human GLP1R): 0.2 nM | EC50 (human GCGR): 0.05 nM | hGCGR/hGLP1R (hTone) (human GCGR): 0.23
SMILES: CC(C)C[C@H](NC(=O)[C@H](Cc1ccc(O)cc1)NC(=O)[C@H](CCCCN)NC(=O)[C@H](CO)NC(=O)[C@H](Cc1ccc(O)cc1)NC(=O)[C@H](CC(=O)O)NC(=O)[C@H](CO)NC(=O)[C@@H](NC(=O)[C@H](Cc1ccccc1)NC(=O)[C@@H](NC(=O)CNC(=O)[C@H](CCC(N)=O)NC(=O)[C@@H](CO)NC(=O)[C@@H](N)Cc1c[nH]cn1)[C@@H](C)O)[C@@H](C)O)C(=O)N[C@@H](CC(=O)O)C(=O)N[C@@H](C)C(=O)N[C@@H](CCCNC(=N)N)C(=O)N[C@@H](C)C(=O)N[C@@H](C)C(=O)N[C@@H](CCC(N)=O)C(=O)N[C@@H](CCCCNC(=O)COCCOCCNC(=O)COCCOCCNC(=O)CC[C@H](NC(=O)CCCCCCCCCCCCCCC(=O)O)C(=O)O)C(=O)N[C@@H](Cc1ccccc1)C(=O)N[C@H](C(=O)N[C@@H](CCC(N)=O)C(=O)N[C@@H](Cc1c[nH]c2ccccc12)C(=O)N[C@@H](CC(C)C)C(=O)N[C@@H](CC(C)C)C(=O)N[C@@H](CC(=O)O)C(=O)N[C@H](C(N)=O)[C@@H](C)O)C(C)C [compound 3] (H-H[dS]QGTFTSDYSKYLDARAAQK([AEEA-AEEA-γGlu-C16 diacid])FVQWLLDT-NH2)

EC50 (human GLP1R): 0.69 nM | EC50 (human GCGR): 0.92 nM | hGCGR/hGLP1R (hTone) (human GCGR): 1.3
SMILES: CC(C)C[C@H](NC(=O)[C@H](Cc1ccc(O)cc1)NC(=O)[C@H](CCCCN)NC(=O)[C@H](CO)NC(=O)[C@H](Cc1ccc(O)cc1)NC(=O)[C@H](CC(=O)O)NC(=O)[C@H](CO)NC(=O)[C@@H](NC(=O)[C@H](Cc1ccccc1)NC(=O)[C@@H](NC(=O)CNC(=O)[C@H](CCC(N)=O)NC(=O)C(C)(C)NC(=O)[C@@H](N)Cc1c[nH]cn1)[C@@H](C)O)[C@@H](C)O)C(=O)N[C@@H](CC(=O)O)C(=O)N[C@@H](C)C(=O)N[C@@H](CCCNC(=N)N)C(=O)N[C@@H](C)C(=O)N[C@@H](C)C(=O)N[C@@H](CCCCNC(=O)COCCOCCNC(=O)COCCOCCNC(=O)CC[C@H](NC(=O)CCCCCCCCCCCCCCCCCCC(=O)O)C(=O)O)C(=O)N[C@@H](CC(=O)O)C(=O)N[C@@H](Cc1ccccc1)C(=O)N[C@H](C(=O)N[C@@H](CCC(N)=O)C(=O)N[C@@H](Cc1c[nH]c2ccccc12)C(=O)N[C@@H](CC(C)C)C(=O)N[C@@H](CCS(C)(=O)=O)C(=O)N[C@@H](CC(=O)O)C(=O)N[C@H](C(N)=O)[C@@H](C)O)C(C)C [compound 43] (H-H[Aib]QGTFTSDYSKYLDARAAK([AEEA-AEEA-γGlu-C20 diacid])DFVQWL[Met(O2)]DT-NH2; N-terminus assumed)
